# Test results: ChEMBL document CHEMBL5252587, “Structure-activity relationship study of antitrypanosomal analogues of gibbilimbol B using multivariate analysis and computation-aided drug design” (Bioorg Med Chem Lett, 2023); call rule not given here
# How the values were obtained:
# [1] = system: Fibroblast; experiment: Cytotoxicity against mouse NCTC Fibroblast cells assessed as inhibition of cell growth; type: functional
# [2] = Selectivity index, ratio of CC50 for cytotoxicity against mouse NCTC Fibroblast cells assessed as inhibition of cell growth to EC50 for antitrypanosomal activity against Trypanosoma cruzi trypomastigotes assessed as parasite growth inhibition; type: toxicity, cell-based; conditions: read-out: Ratio CC50/EC50
# [3] = system: Trypanosoma cruzi; experiment: Antitrypanosomal activity against Trypanosoma cruzi trypomastigotes assessed as parasite growth inhibition; type: functional, organism-based
# [4] = Trypanosoma cruzi, read-out: EC50
SMILES,CC50 [1] [µM],selectivity ratio [2],"EC50 [3, 4] [µM]",EC50 [3]
CCC/C=C/CCCNC(=O)c1ccc(Cl)cc1,> 200,> 7,28.7,
CCCCC(CC)COC(=O)c1ccc(C)cc1 (centres undefined),> 200,> 10.2,19.7,
CCC/C=C/CCCOC(=O)c1ccc(F)cc1,> 200,> 9.6,20.8,
CCCCC(CC)CNC(=O)c1ccc(C(C)(C)C)cc1 (centres undefined),> 200,,,Not Active
CCCCC(CC)CNC(=O)c1ccc(F)cc1 (centres undefined),157,4.3,36.6,
CCCCC(CC)COC(=O)c1ccc(Cl)cc1 (centres undefined),> 200,> 12.8,15.6,
CCC/C=C/CCCNC(=O)c1ccccc1,> 200,> 2.8,71.3,
CCC/C=C/CCCOC(=O)c1ccc([N+](=O)[O-])cc1,> 200,> 35.1,5.6,
CCC/C=C/CCCNC(=O)c1ccc(C(C)(C)C)cc1,> 200,> 26,7.7,
CCCCC(CC)CNC(=O)c1ccc([N+](=O)[O-])cc1 (centres undefined),> 200,> 9.1,22,
CCCCC/C=C/CCCOC(=O)c1ccc(O)cc1,> 200,> 2.7,75.3,
CCCCC(CC)CNC(=O)c1ccc(C)cc1 (centres undefined),> 200,> 9.4,21.3,
CCC/C=C/CCCOC(=O)c1ccccc1,> 200,> 2.6,77.4,
CCCCC(CC)CNC(=O)c1ccc(Cl)cc1 (centres undefined),> 200,> 9.7,20.7,
CCC/C=C/CCCNC(=O)c1ccc([N+](=O)[O-])cc1,158,6.5,24.4,
O=C(Cn1ccnc1[N+](=O)[O-])NCc1ccccc1 [BENZNIDAZOLE],> 200,> 16,,
CCCCC(CC)COC(=O)c1ccc(C(C)(C)C)cc1 (centres undefined),> 200,,,Not Active
CCC/C=C/CCCOC(=O)c1ccc(C)cc1,> 200,> 17.1,11.7,
CCC/C=C/CCCOC(=O)c1ccc(Cl)cc1,> 200,> 10.1,19.8,
CCCCC(CC)COC(=O)c1ccc([N+](=O)[O-])cc1 (centres undefined),> 200,> 17.4,11.5,
CCC/C=C/CCCOC(=O)c1ccc(OC)cc1,> 200,> 12.8,15.6,
CCCCC(CC)COC(=O)c1ccc(F)cc1 (centres undefined),> 200,> 4.7,42.4,
CCC/C=C/CCCOC(=O)c1ccc(C(C)(C)C)cc1,> 200,,,Not Active
CCC/C=C/CCCNC(=O)c1ccc(F)cc1,> 200,> 2.8,71.4,
CCC/C=C/CCCNC(=O)c1ccc(OC)cc1,> 200,> 7.7,25.9,
CCC/C=C/CCCNC(=O)c1ccc(C)cc1,> 200,> 5.3,37.7,
